{"source": "paper PMC6109062", "about": "“The dual methyltransferase METTL13 targets N terminus and Lys55 of eEF1A and modulates codon-specific translation rates” (Nature Communications, 2018)", "molecular_target": "T1, MT13-N (N-terminal methyltransferase domain of METTL13) (Homo sapiens, UniProt Q8N6R0)", "T1 construct": "N-terminal methyltransferase domain, His6-tagged, E. coli", "T1 sequence (Q8N6R0 1-245 limits assumed)": "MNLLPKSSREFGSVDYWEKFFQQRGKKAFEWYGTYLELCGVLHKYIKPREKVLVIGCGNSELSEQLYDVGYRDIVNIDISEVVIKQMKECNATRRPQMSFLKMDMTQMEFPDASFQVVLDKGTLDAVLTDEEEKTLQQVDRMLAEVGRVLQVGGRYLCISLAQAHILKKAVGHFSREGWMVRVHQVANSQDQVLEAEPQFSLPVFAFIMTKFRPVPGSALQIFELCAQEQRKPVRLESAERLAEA", "test": "[3H]AdoMet methyl transfer to eEF1A1, fluorography; MS", "type": "biochemical", "conditions": "co-substrate eEF1A1 (Lys55), no nucleotide added; pH 7.4, 1 mM MgCl2, 30 °C; labelled compound", "data": [{"smiles": "C[S+](CC[C@H](N)C(=O)O)C[C@H]1O[C@@H](n2cnc3c(N)ncnc32)[C@H](O)[C@@H]1O", "note": "(stereo partly shown) [AdoMet]", "values": [{"measurement": "[3H]AdoMet methyl transfer to eEF1A1, fluorography; MS", "result": "Recombinant eEF1A was incubated with MT13-N in the presence of AdoMet"}]}]}
